Entries after “also recorded” stand apart in the source; their conditions may differ.
System: rat model of fibromyalgia pain (reserpine-induced mechanical allodynia)
Experiment: Mechanical allodynia (von Frey 50% response threshold) in reserpine-induced rat model of fibromyalgia pain
Format: in vivo
From the text: The purpose of the study is to assess the efficacy of the described compounds in the rat model of fibromyalgia pain.
Animals were assigned to treatment groups based on Day 0 pre-dose von Frey 50% response thresholds so that group means of the mean paw withdrawal latencies were approximately equal. Animals were ranked by pre- and post-reserpine baseline change from lowest to highest, and treatments were assigned randomly within stratified sub-groups according to the total number of treatment groups in the study.
The animals were dosed in sequence based on animal number, so that the distribution of treatment across a given set of animals was not predictable.
Mechanical fibromyalgia-associated allodynia is measured using […] (Stoelting©; Wood Dale, Ill., USA) with varying stiffness (0.04, 0.07, 0.16, 0.4, 1.0, 4.0, and 8.0 g) according to the up-down method 1. Animals were placed in individual acrylic chambers on a metal mesh surface and allowed to acclimate to their surroundings for a minimum of 15 minutes before testing. Each filament was presented perpendicular to the plantar surface with sufficient force to cause slight buckling against the paw and held for approximately 4 seconds or until a positive response is noted (paw sharply withdrawn). Testing was initiated with the 0.4 g filament. In the absence of a paw withdrawal response, the next stronger stimulus was presented. In the event of paw withdrawal, the next weaker stimulus was used. This process was repeated until 4 responses after the initial change in response (no response to positive response or positive response to no response) were obtained. […] The 50% response threshold is calculated using the formula:
50% response threshold (g)=(10(Xf+kδ))/10,000
• Pre-Injury mechanical fibromyalgia-associated allodynia testing (vF) • Reserpine injection
• Mechanical fibromyalgia-associated allodynia testing (vF; time baseline) • Dosing (time 0 min) • Mechanical fibromyalgia-associated allodynia testing (vF; time ˜1 hour) • Mechanical fibromyalgia-associated allodynia testing (vF; time ˜2 hour) • Mechanical fibromyalgia-associated allodynia testing (vF; time ˜4 hour) • Euthanasia
Pain was induced by three daily doses of 1 mg/kg reserpine, and mechanical fibromyalgia-associated allodynia was assessed using von Frey filaments. Mechanical fibromyalgia-associated allodynia was measured prior to and the first reserpine injection and 4 days following the third injection. GABAA receptor modulators (0.3 or 3 mg/kg), pregabalin (30 mg/kg) or vehicle (0.5% methylcellulose) were administered 4 days after the last reserpine injection, with mechanical fibromyalgia-associated allodynia being assessed prior to, and at 1, 2, and 4 hours post-administration to determine the efficacy of GABAA receptor modulators in this model.

| Compound | Mean Paw Response Thresholds (0.3 mg/kg PO group, Day 0, Baseline (post-reserpine, before dosing)) [g] | Mean Paw Response Thresholds (0.3 mg/kg PO group, Pre-reserpine (before dosing)) [g] | Mean Paw Response Thresholds (0.3 mg/kg PO, Day 0, 1 hr post-dosing) [g] | Mean Paw Response Thresholds (0.3 mg/kg PO, Day 0, 2 hr post-dosing) [g] | Mean Paw Response Thresholds (0.3 mg/kg PO, Day 0, 4 hr post-dosing) [g] | Mean Paw Response Thresholds (3 mg/kg PO group, Day 0, Baseline (post-reserpine, before dosing)) [g] | Mean Paw Response Thresholds (3 mg/kg PO group, Pre-reserpine (before dosing)) [g] | Mean Paw Response Thresholds (3 mg/kg PO, Day 0, 1 hr post-dosing) [g] | Mean Paw Response Thresholds (3 mg/kg PO, Day 0, 2 hr post-dosing) [g] | Mean Paw Response Thresholds (3 mg/kg PO, Day 0, 4 hr post-dosing) [g] | Mean Paw Response Thresholds (30 mg/kg PO group, Day 0, Baseline (post-reserpine, before dosing)) [g] | Mean Paw Response Thresholds (30 mg/kg PO group, Pre-reserpine (before dosing)) [g] | Reversal of reserpine-induced mechanical fibromyalgia-associated allodynia (response thresholds) (30 mg/kg PO, 1, 2 and 4 hour time points) | Mean Paw Response Thresholds (30 mg/kg PO, Day 0, 1 hr post-dosing) [g] | Mean Paw Response Thresholds (30 mg/kg PO, Day 0, 2 hr post-dosing) [g] | Mean Paw Response Thresholds (30 mg/kg PO, Day 0, 4 hr post-dosing) [g] |
| --- | --- | --- | --- | --- | --- | --- | --- | --- | --- | --- | --- | --- | --- | --- | --- | --- |
| CC(C)(O)c1cnn2c(-c3ccc(F)c(-c4c(F)cccc4C#N)c3)cnc2n1 [Compound 1] | 3.68 | 14.50 | 6.52 | 8.36 | 7.96 | 3.82 | 14.01 | 6.08 | 7.98 | 7.54 |  |  |  |  |  |  |
| CC(C)C[C@H](CN)CC(=O)O [pregabalin, reference compound] |  |  |  |  |  |  |  |  |  |  | 3.84 | 14.55 | significantly increased median response thresholds at all of the time points following dosing; also recorded: significantly reversed mechanical fibromyalgia-associated allodynia | 9.34 | 10.17 | 10.23 |
